Results: paper PMC4860888 (Theranostics, 2016)

Tests used:
[1] = tested on: HDAC; settings: cited from earlier work
[2] = tested on: AK7 murine mesothelioma cells; format: in vivo, C57Bl/6 mice; settings: decitabine 4 µg/g i.p. days 7 and 9

Structure (SMILES)	Fold less potent than (R)-trichostatin A [1] [fold]	Anti-tumor effect by itself [2]
CC(C=CC(=O)NO)=C[C@H](C)C(=O)c1ccc(N(C)C)cc1 [(S)-isomer]	70	–
Nc1ncn([C@H]2C[C@H](O)[C@@H](CO)O2)c(=O)n1 [decitabine]	–	no anti-tumor effect
